In patent US12077503B2, “Substituted cyclic amides and their use as herbicides” (FMC CORPORATION, priority 2015, dated 2024):

Experiments:
Type in all cases: in vivo
[1] = system: Kochia (Kochia scoparia); experiment: Test A preemergence; details: Bassia scoparia, pre-emergence, 240 h; for pest or weed control at 125 g/ha: 125 g ai/ha, preemergence, visual rating after approx. 10 d, 0 to 100 scale where 0 is no effect and 100 is complete control; for pest or weed control at 125 g/ha / pest or weed control at 31 g/ha: read-out: Plant response rating, Kochia; for pest or weed control at 31 g/ha: 31 g ai/ha, 0 to 100 scale (0 no effect, 100 complete control)
Outline: (§1)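 Compounds were formulated in a non-phytotoxic solvent mixture with surfactant and applied as a preemergence directed soil spray after seeding, or sprayed postemergence over plants 2 to 10 cm tall at the one- to two-leaf stage. Evaluation after about 10 d compared treated with untreated controls, using a scale from 0 (no effect) to 100 (complete control).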

[2] = system: barnyardgrass (Echinochloa crus-galli); experiment: Test A preemergence; details: Echinochloa crus-galli, pre-emergence, 240 h; for pest or weed control at 125 g/ha: 125 g ai/ha, preemergence, visual rating after approx. 10 d, 0 to 100 scale where 0 is no effect and 100 is complete control; for pest or weed control at 125 g/ha / pest or weed control at 31 g/ha: read-out: Plant response rating, Barnyardgrass; for pest or weed control at 31 g/ha: 31 g ai/ha, 0 to 100 scale (0 no effect, 100 complete control)
Outline: as §1

[3] = system: giant foxtail (Setaria faberii); experiment: Test A preemergence; details: Setaria faberi, pre-emergence, 240 h; for pest or weed control at 125 g/ha: 125 g ai/ha, preemergence, visual rating after approx. 10 d, 0 to 100 scale where 0 is no effect and 100 is complete control; for pest or weed control at 125 g/ha / pest or weed control at 31 g/ha: read-out: Plant response rating, Foxtail, Giant; for pest or weed control at 31 g/ha: 31 g ai/ha, 0 to 100 scale (0 no effect, 100 complete control)
Outline: as §1

[4] = system: ragweed (common ragweed, Ambrosia elatior); experiment: Test A preemergence; details: Ambrosia artemisiifolia, pre-emergence, 240 h; for pest or weed control at 125 g/ha: 125 g ai/ha, preemergence, visual rating after approx. 10 d, 0 to 100 scale where 0 is no effect and 100 is complete control; for pest or weed control at 125 g/ha / pest or weed control at 31 g/ha: read-out: Plant response rating, Ragweed; for pest or weed control at 31 g/ha: 31 g ai/ha, 0 to 100 scale (0 no effect, 100 complete control)
Outline: as §1

[5] = system: ryegrass, Italian (Italian ryegrass, Lolium multiflorum); experiment: Test A preemergence; details: Lolium multiflorum, pre-emergence, 240 h; for pest or weed control at 125 g/ha: 125 g ai/ha, preemergence, visual rating after approx. 10 d, 0 to 100 scale where 0 is no effect and 100 is complete control; for pest or weed control at 125 g/ha / pest or weed control at 31 g/ha: read-out: Plant response rating, Ryegrass, Italian; for pest or weed control at 31 g/ha: 31 g ai/ha, 0 to 100 scale (0 no effect, 100 complete control)
Outline: as §1

[6] = system: Galium (catchweed bedstraw, Galium aparine); experiment: Test A postemergence; details: Galium, post-emergence, 240 h, read-out: Plant response rating, Galium; for pest or weed control at 125 g/ha: 125 g ai/ha, postemergence, visual injury after approximately 10 d, 0 to 100 scale (0 no effect, 100 complete control); for pest or weed control at 31 g/ha: Postemergence, 31 g ai/ha, visual injury after approx. 10 d, 0 to 100 scale, 0 no effect, 100 complete control
Outline: as §1

[7] = system: Kochia (Kochia scoparia); experiment: Test A postemergence; details: Bassia scoparia, post-emergence, 240 h, read-out: Plant response rating, Kochia; for pest or weed control at 125 g/ha: 125 g ai/ha, postemergence, visual injury after approximately 10 d, 0 to 100 scale (0 no effect, 100 complete control); for pest or weed control at 31 g/ha: Postemergence, 31 g ai/ha, visual injury after approx. 10 d, 0 to 100 scale, 0 no effect, 100 complete control
Outline: as §1

[8] = system: barnyardgrass (Echinochloa crus-galli); experiment: Test A postemergence; details: Echinochloa crus-galli, post-emergence, 240 h, read-out: Plant response rating, Barnyardgrass; for pest or weed control at 125 g/ha: 125 g ai/ha, postemergence, visual injury after approximately 10 d, 0 to 100 scale (0 no effect, 100 complete control); for pest or weed control at 31 g/ha: Postemergence, 31 g ai/ha, visual injury after approx. 10 d, 0 to 100 scale, 0 no effect, 100 complete control
Outline: as §1

[9] = system: blackgrass (Alopecurus myosuroides); experiment: Test A postemergence; details: Alopecurus myosuroides, post-emergence, 240 h, read-out: Plant response rating, Blackgrass; for pest or weed control at 125 g/ha: 125 g ai/ha, postemergence, visual injury after approximately 10 d, 0 to 100 scale (0 no effect, 100 complete control); for pest or weed control at 31 g/ha: Postemergence, 31 g ai/ha, visual injury after approx. 10 d, 0 to 100 scale, 0 no effect, 100 complete control
Outline: as §1

[10] = system: corn (Zea mays); experiment: Test A postemergence; details: Zea mays, post-emergence, 240 h; for Corn plant response rating (crop injury, 0 = no effect, 100 = complete kill) at 125 g/ha: 125 g ai/ha, postemergence, visual injury after approximately 10 d, 0 to 100 scale (0 no effect, 100 complete control); for Corn plant response rating (crop injury, 0 = no effect, 100 = complete kill) at 31 g/ha: Postemergence, 31 g ai/ha, visual injury after approx. 10 d, 0 to 100 scale, 100 complete control
Outline: as §1

[11] = system: giant foxtail (Setaria faberii); experiment: Test A postemergence; details: Setaria faberi, post-emergence, 240 h, read-out: Plant response rating, Foxtail, Giant; for pest or weed control at 125 g/ha: 125 g ai/ha, postemergence, visual injury after approximately 10 d, 0 to 100 scale (0 no effect, 100 complete control); for pest or weed control at 31 g/ha: Postemergence, 31 g ai/ha, visual injury after approx. 10 d, 0 to 100 scale, 0 no effect, 100 complete control
Outline: as §1

[12] = system: pigweed (Amaranthus retroflexus); experiment: Test A postemergence; details: Amaranthus retroflexus, post-emergence, 240 h, read-out: Plant response rating, Pigweed; for pest or weed control at 125 g/ha: 125 g ai/ha, postemergence, visual injury after approximately 10 d, 0 to 100 scale (0 no effect, 100 complete control); for pest or weed control at 31 g/ha: Postemergence, 31 g ai/ha, visual injury after approx. 10 d, 0 to 100 scale, 0 no effect, 100 complete control
Outline: as §1

[13] = system: ragweed (common ragweed, Ambrosia elatior); experiment: Test A postemergence; details: Ambrosia artemisiifolia, post-emergence, 240 h, read-out: Plant response rating, Ragweed; for pest or weed control at 125 g/ha: 125 g ai/ha, postemergence, visual injury after approximately 10 d, 0 to 100 scale (0 no effect, 100 complete control); for pest or weed control at 31 g/ha: Postemergence, 31 g ai/ha, visual injury after approx. 10 d, 0 to 100 scale, 0 no effect, 100 complete control
Outline: as §1

[14] = system: ryegrass, Italian (Italian ryegrass, Lolium multiflorum); experiment: Test A postemergence; details: Lolium multiflorum, post-emergence, 240 h, read-out: Plant response rating, Ryegrass, Italian; for pest or weed control at 125 g/ha: 125 g ai/ha, postemergence, visual injury after approximately 10 d, 0 to 100 scale (0 no effect, 100 complete control); for pest or weed control at 31 g/ha: Postemergence, 31 g ai/ha, visual injury after approx. 10 d, 0 to 100 scale, 0 no effect, 100 complete control
Outline: as §1

[15] = system: wheat (Triticum aestivum); experiment: Test A postemergence; details: Triticum aestivum, post-emergence, 240 h, read-out: Plant response rating, Wheat; for plant injury at 31 g/ha: Postemergence, 31 g ai/ha, visual injury after approx. 10 d, 0 to 100 scale, 0 no effect, 100 complete control
Outline: as §1

Row | SMILES | pest or weed control at 125 g/ha [1] | pest or weed control at 125 g/ha [2] | pest or weed control at 125 g/ha [3] | pest or weed control at 125 g/ha [4] | pest or weed control at 125 g/ha [5] | pest or weed control at 125 g/ha [6] | pest or weed control at 125 g/ha [7] | pest or weed control at 125 g/ha [8] | pest or weed control at 125 g/ha [9] | Corn plant response rating (crop injury, 0 = no effect, 100 = complete kill) at 125 g/ha [10] | pest or weed control at 125 g/ha [11] | pest or weed control at 125 g/ha [12] | pest or weed control at 125 g/ha [13] | pest or weed control at 125 g/ha [14] | pest or weed control at 31 g/ha ([1]; Preemergence) | pest or weed control at 31 g/ha ([2]; Preemergence) | pest or weed control at 31 g/ha ([3]; Preemergence) | pest or weed control at 31 g/ha ([4]; Preemergence) | pest or weed control at 31 g/ha ([5]; Preemergence) | pest or weed control at 31 g/ha [6] | other results
1 | CS(=O)(=O)c1ccccc1NC(=O)[C@H]1C(=O)NC[C@@H]1c1ccc(OC(F)F)cc1 [Compound 787] | 80% | 20% | 70% | 70% | 0% | 60% | 60% | 30% | 0% | 0% | 20% | 60% | 50% | 20% |  |  |  |  |  |  | pest or weed control at 500 g/ha ([1]; 500 g ai/ha, Preemergence, visual injury vs untreated controls after approximately 10 d, read-out: Kochia plant response rating (0 to 100 scale where 0 is no effect and 100 is complete control)): 90%; pest or weed control at 500 g/ha ([2]; 500 g ai/ha, Preemergence, visual injury vs untreated controls after approximately 10 d, read-out: Barnyardgrass plant response rating (0 to 100 scale where 0 is no effect and 100 is complete control)): 70%; pest or weed control at 500 g/ha ([3]; 500 g ai/ha, Preemergence, visual injury vs untreated controls after approximately 10 d, read-out: Foxtail, Giant plant response rating (0 to 100 scale where 0 is no effect and 100 is complete control)): 90%; pest or weed control at 500 g/ha ([4]; 500 g ai/ha, Preemergence, visual injury vs untreated controls after approximately 10 d, read-out: Ragweed plant response rating (0 to 100 scale where 0 is no effect and 100 is complete control)): 70%; pest or weed control at 500 g/ha ([5]; 500 g ai/ha, Preemergence, visual injury vs untreated controls after approximately 10 d, read-out: Ryegrass, Italian plant response rating (0 to 100 scale where 0 is no effect and 100 is complete control)): 0%; plant injury at 125 g/ha ([15]; 125 g ai/ha, postemergence, visual injury after approximately 10 d, 0 to 100 scale (0 no effect, 100 complete control)): 0%
2 | C/C=C/C1CNC(=O)C1C(=O)Nc1cccc(F)c1F (stereo not drawn) [Compound 793] | 0% | 0% | 0% | 0% | 0% | 0% | 0% | 0% | 0% | 0% | 0% | 0% | 0% | 0% | 0% | 0% | 0% | 0% | 0% | 0% | pest or weed control at 31 g/ha [7]: 0%; pest or weed control at 31 g/ha [8]: 0%; pest or weed control at 31 g/ha [9]: 0%; Corn plant response rating (crop injury, 0 = no effect, 100 = complete kill) at 31 g/ha [10]: 0%; pest or weed control at 31 g/ha [11]: 0%; pest or weed control at 31 g/ha [12]: 0%; pest or weed control at 31 g/ha [13]: 0%; pest or weed control at 31 g/ha [14]: 0%; plant injury at 31 g/ha [15]: 0%
3 | CN1CC[C@@H](c2cccc(C(F)(F)F)c2)[C@H](C(=O)Nc2ccccc2F)C1=O [Compound 794] | 0% | 90% | 90% | 0% | 0% | 0% | 0% | 30% | 0% | 0% | 30% | 0% | 0% | 0% | 0% | 70% | 30% | 0% | 0% | 0% | pest or weed control at 31 g/ha [7]: 0%; pest or weed control at 31 g/ha [8]: 0%; pest or weed control at 31 g/ha [9]: 0%; Corn plant response rating (crop injury, 0 = no effect, 100 = complete kill) at 31 g/ha [10]: 0%; pest or weed control at 31 g/ha [11]: 0%; pest or weed control at 31 g/ha [12]: 0%; pest or weed control at 31 g/ha [13]: 0%; pest or weed control at 31 g/ha [14]: 0%; plant injury at 31 g/ha [15]: 0%
